From patent publication US20240207282A1, “METHOD OF INCREASING CHAPERONE MEDIATED AUTOPHAGY BY STABILIZING THE INTERACTION OF RETINOIC ACID RECEPTOR-ALPHA AND AN INHIBITOR” (ALBERT EINSTEIN COLLEGE OF MEDICINE, priority 2021, published 2024)

Tests used:
human cells = assay: CMA activity, KFERQ-PS-Dendra reporter in human cells; assay type: cell-based
Experimental: Cells: NIH3T3 mouse fibroblasts and the N2a neuroblastoma cell line were obtained from the American Type Culture Collection and were validated by genomic PCR. Primary human fibroblasts (GM01651) were from Coriell Repository. All the cells lines were tested for mycoplasma contamination using DNA staining protocol with Hoechst 33258 dye. Knock-down of NCoR1 was done using lentiviral mediated shRNA (SHCLNG-NM_011308) from the Sigma Mission library following standard procedures. Efficiency of knock-down was tested by immunoblot. Cell viability was measured using the CellTiter-Blue kit (Promega) 24 h after the addition of the different stressors according to manufacturer's instructions.
CMA activity: Cells were transduced with lentivirus carrying the KFERQ-PS-Dendra reporter as before. Cells were photoactivated by exposure to a 3.5 mA (current constant) light emitting diode (LED: Norlux, 405 nm) for 3 min and then plated in glass-bottom 96 well plates. At the desired times, cells were fixed with 4% PFA and imaged using high-content microscopy (Operetta system, Perkin Elmer). Images were quantified using the manufacturer's software in a minimum of 1,200 cells in 9 independent fields per well. […] To avoid con-funding effects for drug-induced changes in cell volume or adherence to the plate that could bring a fraction of the cells per field outside of focus, we set a threshold to count only cells that have at least 1/10 of the average number of […] detected in the untreated wells for each cell type (3-4 puncta/cell in the case of NIH3T3 and N2a cells and 5 puncta/cell in primary human fibroblasts). […] Slices were mounted in DAPI-Fluoromount-G to highlight the cell nucleus and allow quantification of puncta per cell. Images were acquired in x-y-z planes with an Axiovert 200 fluorescence microscope (Carl Zeiss Ltd) with a ×63 objective and 1.4 numerical aperture, mounted with an ApoTome.2 slider or with a Confocal microscope (TCS SP5; Leica) using an HCX Plan Apo CS×63.0 1.40 NA oil objective and the Leica Application Suite X (LAS X).

NIH3T3 = assay: Intracellular proteolysis of long half-life proteins (3H-leucine); assay type: cell-based, mouse; settings: 10 μM; duration of increase after addition
Experimental: Proteolysis was calculated from aliquots of the medium taken at different times and precipitated in trichloroacetic acid, as the amount of acid-precipitable radioactivity transformed to acid-soluble radioactivity at each time.

CMA network = assay: Comparative transcriptomic analysis / qPCR of CMA network; assay type: cell-based, mouse; settings: for changes in the transcriptome: treated cells
Experimental: mRNA-qPCR: RNA was extracted from individual retinas. Total RNA from retinas was extracted using TRIzol Reagent (Invitrogen), and reverse transcription performed using the High-Capacity cDNA Reverse Transcription Kit (Applied Biosystems) according to the manufacturer's instructions. Quantitative real-time PCR was performed in a Light Cycler 480 Instrument (Roche) with Taqman Universal PCR Master Mix using Taqman assays (Life Tech-nologies). The following probes were used: Mm01184405_m1 (rhodopsin), F-5′-CTTAGCTTCTGGGATGC CCC-3′, R-5′-[…]-3′ (lamp2a) F-5′-AA GGACTCCTA TAGTGGG TGACGA-3′, R-5′-[…]-3′ (mouse β-actin).
Microarray: Total RNA of the treated cells was extracted using TRIzol (Invitrogen) and purified with RNeasy chromatography (Qiagen). Cy3-labeled RNA (0.6 μg) from each condition were hybridized to Agilent Mouse 8×60K. Data were processed using the oligo package and normalized using Robust Multiarray Average (RMA) method. Gene set was filtered to remove genes without Entrez or GO annotation (21912 genes out of 55682) and genes with an […]. The full microarray Gomez-Sintes et al. raw data will be deposited in GEO upon acceptance of the manuscript. Pathway analysis was performed using the STRING database ([…]).
CMA index was calculated using data set from Ly (J. Proteome Research (2016) 15: 1350-1359), Gao (2020), and Lane (2020). Briefly, each element of the CMA network was attributed a weight. As LAMP-2A is the rate limiting component of CMA, it was given a weight of 2. Every other element received a weight of 1. Then, every element was attributed direction score that is +1 or −1 based on the known effect of a given element on CMA activity. The score was then calculated as the weighted/directed average of expression counts of every element of the CMA network.

[1] = Pharmacokinetics in mice (plasma and brain); assay type: in vivo, mouse; settings: male, ICR (CD-1), mouse, po, administered orally
Experimental: ICR (CD-1) male mice were fasted at least three hours and water was available ad libitum before the study. Animals were housed in a controlled environment, target conditions: temperature 18 to 29° C., relative humidity 30 to 70%. Temperature and relative humidity was monitored daily. An electronic time controlled lighting system was used to provide a 12 hr light/12 hr dark cycle. 3 mice for each indicated time point were administered 30 mg/Kg CA39 or CA77 by oral gavage or 1 mg/Kg CA39 or CA77 by intravenous injection using 30% PEG-400, 65% D5W (5% dextrose in water), 5% Tween-80 vehicle. Mice were sacrificed, and brain samples were harvested at 0 hr, 0.25 hr, 0.5 hr, 1 hr, 2 hr, 4 hr, 8 hr, 24 hr, and analyzed for CA39 or CA77 levels using LC-MS/MS. Pharmacokinetics parameters were calculated using Phoenix WinNonlin 6.3. Experiments performed at SIMM-SERVIER joint Biopharmacy Laboratory.

[2] = Chronic toxicity in mice (blood count, histopathology); assay type: in vivo; settings: chronic (5 months) daily oral administration
Experimental: Liver, lung and kidneys from CA-treated animals were dissected and fixed in 1% PFA overnight and paraffin embedded. Tissues were sectioned, stained with hematoxylin and eosin (H&E) and analyzed by an expert pathologist, blind to the treatment groups, to score for possible presence of toxicity in these organs. Scoring 1-6 was used assigning 6 to those observations clinically relevant. Individual scoring per parameter and per organ and average scoring per organ were performed. Blood cell count in the groups of mice administered vehicle or CA was analyzed in tail blood drawn monthly and at the moment of tissue dissection using an Oxford Science Forcyte Blood Analysis Unit.

cellular RARα and NCoR1 = target: T1, cellular RARα and NCoR1 (Mus musculus, UniProt P11416); assay: Streptavidin pulldown of RARα and NCoR1 with biotinylated CA compound; assay type: binding; settings: NIH3T3, 10 μM, 24 h
T1 construct: endogenous in cells; host or cells: NIH3T3
T1 sequence (P11416 whole entry): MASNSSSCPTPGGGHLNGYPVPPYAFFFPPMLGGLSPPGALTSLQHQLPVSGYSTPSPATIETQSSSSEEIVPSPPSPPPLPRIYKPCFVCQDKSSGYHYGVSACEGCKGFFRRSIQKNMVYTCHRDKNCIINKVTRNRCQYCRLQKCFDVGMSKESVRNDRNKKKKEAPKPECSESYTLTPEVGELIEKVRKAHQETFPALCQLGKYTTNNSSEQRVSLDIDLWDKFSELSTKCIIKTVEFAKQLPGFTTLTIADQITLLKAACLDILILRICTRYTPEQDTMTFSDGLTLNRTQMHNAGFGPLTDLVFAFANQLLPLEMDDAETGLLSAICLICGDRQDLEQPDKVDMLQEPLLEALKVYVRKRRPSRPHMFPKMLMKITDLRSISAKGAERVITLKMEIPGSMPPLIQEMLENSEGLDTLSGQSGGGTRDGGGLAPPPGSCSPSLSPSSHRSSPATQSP
T1 sequence (Q60974 whole entry partner): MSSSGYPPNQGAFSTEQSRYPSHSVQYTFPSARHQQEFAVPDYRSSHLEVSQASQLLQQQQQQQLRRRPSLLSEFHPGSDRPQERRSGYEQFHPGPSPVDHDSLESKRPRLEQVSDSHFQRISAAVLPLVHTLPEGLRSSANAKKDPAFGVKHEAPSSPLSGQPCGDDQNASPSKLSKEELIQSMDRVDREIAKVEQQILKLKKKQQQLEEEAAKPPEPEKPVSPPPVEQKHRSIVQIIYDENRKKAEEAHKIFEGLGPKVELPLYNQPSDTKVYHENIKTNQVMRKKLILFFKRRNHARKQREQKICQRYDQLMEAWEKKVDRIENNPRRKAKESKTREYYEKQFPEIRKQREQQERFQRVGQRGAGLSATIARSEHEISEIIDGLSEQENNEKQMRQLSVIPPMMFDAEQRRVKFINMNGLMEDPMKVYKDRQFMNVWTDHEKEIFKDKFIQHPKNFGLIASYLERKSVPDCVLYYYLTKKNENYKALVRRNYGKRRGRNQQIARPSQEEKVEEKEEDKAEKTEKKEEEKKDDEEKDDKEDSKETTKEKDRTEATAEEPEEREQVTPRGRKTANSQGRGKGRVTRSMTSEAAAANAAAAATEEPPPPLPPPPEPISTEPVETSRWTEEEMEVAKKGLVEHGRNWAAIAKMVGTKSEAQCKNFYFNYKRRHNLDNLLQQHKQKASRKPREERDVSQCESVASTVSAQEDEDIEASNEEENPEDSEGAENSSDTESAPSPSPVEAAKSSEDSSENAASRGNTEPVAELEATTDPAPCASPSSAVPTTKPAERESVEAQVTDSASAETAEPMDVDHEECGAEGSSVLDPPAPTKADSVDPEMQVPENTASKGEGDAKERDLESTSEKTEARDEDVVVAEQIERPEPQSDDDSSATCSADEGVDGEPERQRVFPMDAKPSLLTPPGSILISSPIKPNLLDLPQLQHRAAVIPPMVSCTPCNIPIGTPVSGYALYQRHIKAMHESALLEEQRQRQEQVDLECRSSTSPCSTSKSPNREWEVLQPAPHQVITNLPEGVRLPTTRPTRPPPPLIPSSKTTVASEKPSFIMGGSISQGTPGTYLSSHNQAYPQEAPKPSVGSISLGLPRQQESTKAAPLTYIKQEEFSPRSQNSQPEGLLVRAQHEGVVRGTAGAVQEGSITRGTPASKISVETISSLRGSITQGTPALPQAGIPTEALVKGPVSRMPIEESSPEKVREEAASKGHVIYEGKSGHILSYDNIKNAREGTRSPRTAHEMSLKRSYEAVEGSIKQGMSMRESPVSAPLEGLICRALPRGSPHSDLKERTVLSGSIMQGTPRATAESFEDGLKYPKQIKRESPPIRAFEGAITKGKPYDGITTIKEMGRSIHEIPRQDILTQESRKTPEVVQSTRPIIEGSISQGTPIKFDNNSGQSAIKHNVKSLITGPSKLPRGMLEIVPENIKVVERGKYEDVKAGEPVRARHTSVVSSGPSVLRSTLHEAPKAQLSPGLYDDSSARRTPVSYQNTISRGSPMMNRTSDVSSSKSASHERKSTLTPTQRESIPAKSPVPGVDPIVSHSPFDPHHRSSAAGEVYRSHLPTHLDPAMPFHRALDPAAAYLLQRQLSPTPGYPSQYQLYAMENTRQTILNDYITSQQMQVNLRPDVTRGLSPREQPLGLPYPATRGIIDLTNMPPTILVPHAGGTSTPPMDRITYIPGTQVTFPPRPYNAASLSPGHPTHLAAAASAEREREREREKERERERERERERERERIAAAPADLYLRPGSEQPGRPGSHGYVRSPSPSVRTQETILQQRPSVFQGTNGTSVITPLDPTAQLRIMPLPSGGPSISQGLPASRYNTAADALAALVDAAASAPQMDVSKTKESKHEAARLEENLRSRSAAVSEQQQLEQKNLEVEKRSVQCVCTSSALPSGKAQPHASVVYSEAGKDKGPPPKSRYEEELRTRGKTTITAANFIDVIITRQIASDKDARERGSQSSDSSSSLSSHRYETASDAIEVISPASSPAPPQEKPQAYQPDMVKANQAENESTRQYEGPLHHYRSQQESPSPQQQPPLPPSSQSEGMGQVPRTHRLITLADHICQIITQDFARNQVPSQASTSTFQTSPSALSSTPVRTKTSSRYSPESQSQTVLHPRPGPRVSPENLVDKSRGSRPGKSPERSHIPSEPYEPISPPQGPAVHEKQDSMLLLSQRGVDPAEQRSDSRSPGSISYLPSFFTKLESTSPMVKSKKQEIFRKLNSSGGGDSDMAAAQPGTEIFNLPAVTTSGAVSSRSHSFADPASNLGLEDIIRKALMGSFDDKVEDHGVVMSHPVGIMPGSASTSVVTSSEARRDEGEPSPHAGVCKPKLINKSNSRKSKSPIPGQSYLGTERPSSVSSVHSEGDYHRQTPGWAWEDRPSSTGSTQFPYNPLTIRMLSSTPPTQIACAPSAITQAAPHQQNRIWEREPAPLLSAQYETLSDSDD

Q: Which CMA activation (human cells) does the source give for `Cc1ccc(C2=Nc3ccc(Cl)cc3OC2)cc1` [AR7, reference compound] here?
A: very discrete

Q: What about the “intracellular rates of degradation of long-lived proteins” value (NIH3T3) of the same molecule?
A: sustained only for the first 12 h after addition of the compound

Q: What about the “number of CMA network components with changed expression” value (CMA network; of the 17 currently accepted components) of the same molecule?
A: 8

Q: What about the “changes in the transcriptome” value (CMA network) of the same molecule?
A: only induced changes in the expression of a discrete fraction of genes

Q: For `CC1(C)CC=C(c2cnc3ccccc3c2)c2cc(C(=O)Nc3ccc(C(=O)O)cc3)ccc21` [BMS614], which “changes in the transcriptome” value (CMA network) is on record?
A: marked changes in the transcriptome

Q: What does the source list for `CC(=O)Nc1ccc(-c2cnc3cc(Cl)ccc3n2)cc1` [CA77.1]?
A: Kp ([1]; brain/plasma, read-out: AUC brain/plasma): 5.73; half-life ([1]; plasma, read-out: Plasma half-life (converted)): 3 h; peripheral blood or major organ toxicity [2]: lack of peripheral blood or major organ (liver, lung, kidney) toxicity

Q: For `O=C(CCCC[C@H]1SCC2NC(=O)NC21)NCCCOCCOCCOCCCNC(=O)c1ccc(C2=Nc3ccc(Cl)cc3OC2)cc1` (stereo partly drawn) [biotinylated CA compound], which “co-immunoprecipitation of cellular RARα and NCoR1” value (cellular RARα and NCoR1) is on record?
A: could be co-immunoprecipitated
